{"source": "patent US5004738A", "about": "“1,1-dioxopenicillanoyl oxymethyl D-6-(α-(methyleneamino) phenylacetamido)-penicillanate and a process for the preparation thereof” (priority 1989, dated 1991)", "key": {"[1]": {"test_system": "gram-positive and gram-negative bacteria", "details": "cited from earlier work"}, "[2]": {"test_system": "Staphylococcus aureus SG511", "experiment": "In vitro antibacterial activity test (agar dilution, Mueller Hinton Agar)", "format": "cell-based", "details": "18 hours at 37° C.", "experimental": "(§1) (1) In vitro antibacterial activity test\n(§2) 2 fold dilutions of the testing compounds were employed by using agar dilution method of Mueller Hinton Agar. After 18 hours at 37° C., the susceptibility (MIC) of the test organism was accepted as the lowest concentration of compound capable of producing complete inhibition of growth as judged by the naked eye."}, "[3]": {"test_system": "Enterobacter cloacae 132E", "experiment": "In vitro antibacterial activity test (agar dilution, Mueller Hinton Agar)", "format": "cell-based", "details": "18 hours at 37° C.", "experimental": "as §1, §2"}, "Escherichia coli DC2": {"test_system": "Escherichia coli DC2", "experiment": "In vitro antibacterial activity test (agar dilution, Mueller Hinton Agar)", "format": "cell-based", "details": "18 hours at 37° C.", "experimental": "as §1, §2"}, "[4]": {"test_system": "Streptococcus faecium MD8", "experiment": "In vitro antibacterial activity test (agar dilution, Mueller Hinton Agar)", "format": "cell-based", "details": "Enterococcus faecium, 18 hours at 37° C.", "experimental": "as §1, §2"}, "β-lactamases": {"test_system": "β-lactamases", "details": "cited from earlier work"}}}
{"molecule": "C=N[C@@H](C(=O)N[C@@H]1C(=O)N2[C@@H]1SC(C)(C)[C@@H]2C(=O)O)c1ccccc1", "note": "[Methanpicillin]", "values": [{"measurement": "inhibition against gram-positive and gram-negative bacteria", "setting": "[1]", "result": "marked increase in inhibition against gram-positive and gram-negative bacteria"}]}
{"molecule": "C=N[C@@H](C(=O)N[C@@H]1C(=O)N2[C@@H]1SC(C)(C)[C@@H]2C(=O)OCOC(=O)[C@@H]1N2C(=O)C[C@H]2S(=O)(=O)C1(C)C)c1ccccc1", "note": "[compound (I), 1,1-dioxopenicillanoyl oxymethyl D-6-[(α-methyleneamino)phenylacetamido]-penicillanate]", "values": [{"measurement": "MIC", "setting": "[2]", "result": 0.098, "unit": "µg/mL"}, {"measurement": "MIC", "setting": "[3]", "result": 1.56, "unit": "µg/mL"}, {"measurement": "MIC", "setting": "Escherichia coli DC2", "result": 1.56, "unit": "µg/mL"}, {"measurement": "MIC", "setting": "[4]", "result": 0.781, "unit": "µg/mL"}]}
{"molecule": "CC1(C)[C@H](C(=O)O)N2C(=O)C[C@H]2S1(=O)=O", "note": "[sulbactam, 3.3-dimethyl-7-oxo-4thia-1-azabicyclo(3.2.0)heptane-2-carboxylic acid, 4-4-dioxide [2S(2α,5α)]]", "values": [{"measurement": "inhibition of β-lactamases", "setting": "β-lactamases; alone", "result": "poor inhibitor of β-lactamases"}, {"measurement": "inhibition of the enzymatic hydrolysis of antibiotics", "setting": "β-lactamases; with β-lactamase inhibiting antibiotics", "result": "modest increase in inhibition of the enzymatic hydrolysis of antibiotics"}]}
